# Where “and” joins values, the source holds several entries; their conditions need not be identical. Identical values can stand only once.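 Results reflect a 48-hour exposure of cells in 96-well plates to compound at five concentrations. The concentration for 50% growth inhibition is given as GI50. TGI is the concentration that stops growth completely.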
# Experiments:
# Assay in all cases: NCI tumour cell line growth inhibition, 48 h
# 786-0 renal = system: 786-0 renal
# A498 renal = system: A498 renal
# A549 NSCLC = system: A549 NSCLC
# ACHN renal = system: ACHN renal
# BT-549 breast = system: BT-549 breast
# CAKI-1 renal = system: CAKI-1 renal
# CCRF-CEM leukemia = system: CCRF-CEM leukemia
# COLO 205 colon = system: COLO 205 colon
# DU-145 prostate = system: DU-145 prostate
# EKVX NSCLC = system: EKVX NSCLC
# HCC-2998 colon = system: HCC-2998 colon
# HCT-116 colon = system: HCT-116 colon
# HCT-15 colon = system: HCT-15 colon
# HL-60(TB) leukemia = system: HL-60(TB) leukemia
# HOP-62 NSCLC = system: HOP-62 NSCLC
# HOP-92 NSCLC = system: HOP-92 NSCLC
# HS 578T breast = system: HS 578T breast
# HT29 colon = system: HT29 colon
# IGROV1 ovarian = system: IGROV1 ovarian
# K-562 leukemia = system: K-562 leukemia
# KM12 colon = system: KM12 colon
# LOX IMVI melanoma = system: LOX IMVI melanoma
# M14 melanoma = system: M14 melanoma
# MALME-3M melanoma = system: MALME-3M melanoma
# MCF7 breast = system: MCF7 breast
# MDA-MB-231 breast = system: MDA-MB-231 breast
# MDA-MB-435 = system: MDA-MB-435
# MOLT-4 leukemia = system: MOLT-4 leukemia
# NCI-H226 lung = system: NCI-H226 lung
# NCI-H23 lung = system: NCI-H23 lung
# NCI-H460 lung = system: NCI-H460 lung
# NCI-H522 lung = system: NCI-H522 lung
# NCI/ADR-RES ovarian = system: NCI/ADR-RES ovarian
# OVCAR-3 ovarian = system: OVCAR-3 ovarian
# OVCAR-4 ovarian = system: OVCAR-4 ovarian
# OVCAR-5 ovarian = system: OVCAR-5 ovarian
# OVCAR-8 ovarian = system: OVCAR-8 ovarian
# PC-3 prostate = system: PC-3 prostate
# RPMI-8226 leukemia = system: RPMI-8226 leukemia
# RXF 393 renal = system: RXF 393 renal
# SF-268 CNS = system: SF-268 CNS
# SF-295 CNS = system: SF-295 CNS
# SF-539 CNS = system: SF-539 CNS
# SK-MEL-2 melanoma = system: SK-MEL-2 melanoma
# SK-MEL-28 melanoma = system: SK-MEL-28 melanoma
# SK-MEL-5 melanoma = system: SK-MEL-5 melanoma
# SK-OV-3 ovarian = system: SK-OV-3 ovarian
# SN12C renal = system: SN12C renal
# SNB-19 CNS = system: SNB-19 CNS
# SNB-75 CNS = system: SNB-75 CNS
# SR leukemia = system: SR leukemia
# SW-620 colon = system: SW-620 colon
# T-47D breast = system: T-47D breast
# TK-10 renal = system: TK-10 renal
# U251 CNS = system: U251 CNS
# UACC-257 melanoma = system: UACC-257 melanoma
# UACC-62 melanoma = system: UACC-62 melanoma
# UO-31 renal = system: UO-31 renal
compound,measurement,setting,value
Cc1nc(-c2cn3c(n2)-c2ccc(-c4cnn(C(C)(C)C(N)=O)c4)cc2OCC3)n(C(C)C)n1,GI50,786-0 renal,1.05 µM and 0.747 µM
same,TGI,786-0 renal,> 100 µM
same,GI50,A498 renal,0.143 µM and 0.274 µM
same,TGI,A498 renal,1.15 µM and 1.67 µM
same,GI50,A549 NSCLC,0.332 µM and 0.392 µM
same,TGI,A549 NSCLC,16.8 µM and > 10 µM
same,GI50,ACHN renal,0.647 µM and 1.33 µM
same,TGI,ACHN renal,> 100 µM
same,GI50,BT-549 breast,0.633 µM and 0.594 µM
same,TGI,BT-549 breast,17.4 µM and > 10 µM
same,GI50,CAKI-1 renal,1 µM and 1.2 µM
same,TGI,CAKI-1 renal,> 100 µM
same,GI50,CCRF-CEM leukemia,0.338 µM and 0.765 µM
same,TGI,CCRF-CEM leukemia,27.8 µM and > 10 µM
same,GI50,COLO 205 colon,0.109 µM and 0.203 µM
same,TGI,COLO 205 colon,16.6 µM and > 10 µM
same,GI50,DU-145 prostate,1.72 µM and 2.15 µM
same,TGI,DU-145 prostate,> 100 µM
same,GI50,EKVX NSCLC,1.48 µM
same,TGI,EKVX NSCLC,> 10 µM
same,GI50,HCC-2998 colon,0.895 µM and 0.295 µM
same,TGI,HCC-2998 colon,17.2 µM and > 10 µM
same,GI50,HCT-116 colon,1.2 µM and 0.399 µM
same,TGI,HCT-116 colon,23.4 µM and > 10 µM
same,GI50,HCT-15 colon,0.219 µM and 0.314 µM
same,TGI,HCT-15 colon,39.9 µM and > 10 µM
same,GI50,HL-60(TB) leukemia,< 0.0202 µM and 0.00955 µM
same,TGI,HL-60(TB) leukemia,25.8 µM and > 10 µM
same,GI50,HOP-62 NSCLC,0.726 µM and 4.51 µM
same,TGI,HOP-62 NSCLC,60.4 µM and > 10 µM
same,GI50,HOP-92 NSCLC,0.0211 µM and 0.0253 µM
same,GI50,HS 578T breast,0.147 µM and 0.169 µM
same,TGI,HS 578T breast,13 µM and > 10 µM
same,GI50,HT29 colon,0.0225 µM and 0.0401 µM
same,TGI,HT29 colon,17.1 µM and > 10 µM
same,GI50,IGROV1 ovarian,< 0.0106 µM and 0.00612 µM
same,TGI,IGROV1 ovarian,0.0829 µM and 0.0677 µM
same,GI50,K-562 leukemia,8.86 µM
same,TGI,K-562 leukemia,> 75.7 µM
same,GI50,KM12 colon,3.48 µM and 3 µM
same,TGI,KM12 colon,17.2 µM and > 10 µM
same,GI50,LOX IMVI melanoma,0.279 µM and 0.74 µM
same,TGI,LOX IMVI melanoma,17.7 µM and > 10 µM
same,GI50,M14 melanoma,3.24 µM and 3.57 µM
same,TGI,M14 melanoma,26 µM and > 10 µM
same,TGI,MALME-3M melanoma,3.12 µM and > 10 µM
same,GI50,MCF7 breast,< 0.01 µM and 0.00991 µM
same,TGI,MCF7 breast,> 50.5 µM
same,GI50,MDA-MB-231 breast,6.44 µM and 4.11 µM
same,TGI,MDA-MB-231 breast,35.9 µM and > 10 µM
same,GI50,MDA-MB-435,2.31 µM and 2.67 µM
same,TGI,MDA-MB-435,26.2 µM and > 10 µM
same,GI50,MOLT-4 leukemia,0.136 µM and 0.282 µM
same,TGI,MOLT-4 leukemia,22.8 µM and > 10 µM
same,GI50,NCI-H226 lung,3.98 µM and 2.87 µM
same,TGI,NCI-H226 lung,97.4 µM and > 10 µM
same,GI50,NCI-H23 lung,13.8 µM and > 5.49 µM
same,TGI,NCI-H23 lung,> 100 µM
same,GI50,NCI-H460 lung,0.111 µM and 0.169 µM
same,TGI,NCI-H460 lung,> 100 µM
same,GI50,NCI-H522 lung,5.73 µM and 6.01 µM
same,TGI,NCI-H522 lung,26.7 µM and > 10 µM
same,GI50,NCI/ADR-RES ovarian,8.25 µM and > 7.21 µM
same,TGI,NCI/ADR-RES ovarian,> 83.1 µM
same,GI50,OVCAR-3 ovarian,0.876 µM and 0.582 µM
same,TGI,OVCAR-3 ovarian,16.6 µM and > 10 µM
same,TGI,OVCAR-4 ovarian,> 10 µM
same,GI50,OVCAR-5 ovarian,0.17 µM and 0.976 µM
same,TGI,OVCAR-5 ovarian,32.3 µM and > 10 µM
same,GI50,OVCAR-8 ovarian,3.38 µM and 5.87 µM
same,TGI,OVCAR-8 ovarian,75.9 µM and > 10 µM
same,GI50,PC-3 prostate,0.249 µM and 0.374 µM
same,TGI,PC-3 prostate,> 75.3 µM
same,GI50,RPMI-8226 leukemia,5.9 µM and > 8.93 µM
same,TGI,RPMI-8226 leukemia,28.5 µM and > 10 µM
same,GI50,RXF 393 renal,0.537 µM and 0.727 µM
same,TGI,RXF 393 renal,4.61 µM and > 7.26 µM
same,GI50,SF-268 CNS,3.7 µM and 2.29 µM
same,TGI,SF-268 CNS,> 100 µM
same,GI50,SF-295 CNS,0.894 µM and 0.838 µM
same,TGI,SF-295 CNS,16.7 µM and > 10 µM
same,GI50,SF-539 CNS,0.654 µM and 0.493 µM
same,TGI,SF-539 CNS,6.13 µM and 5.83 µM
same,GI50,SK-MEL-2 melanoma,4.25 µM and 4.74 µM
same,TGI,SK-MEL-2 melanoma,24.2 µM and > 10 µM
same,GI50,SK-MEL-28 melanoma,0.535 µM and 0.414 µM
same,TGI,SK-MEL-28 melanoma,> 38.3 µM
same,GI50,SK-MEL-5 melanoma,4.1 µM and 2.79 µM
same,TGI,SK-MEL-5 melanoma,17.2 µM and > 10 µM
same,GI50,SK-OV-3 ovarian,< 0.0126 µM and 0.0162 µM
same,TGI,SK-OV-3 ovarian,0.137 µM
same,GI50,SN12C renal,1.54 µM and 1.04 µM
same,TGI,SN12C renal,> 100 µM
same,GI50,SNB-19 CNS,1.92 µM and 2.47 µM
same,TGI,SNB-19 CNS,> 100 µM
same,GI50,SNB-75 CNS,0.0204 µM and 0.0142 µM
same,TGI,SNB-75 CNS,2.63 µM and > 2.63 µM
same,GI50,SR leukemia,4.97 µM and 8.69 µM
same,TGI,SR leukemia,26.1 µM and > 10 µM
same,GI50,SW-620 colon,8.08 µM and 3.48 µM
same,TGI,SW-620 colon,> 100 µM
same,GI50,T-47D breast,< 0.0384 µM and 0.00372 µM
same,GI50,TK-10 renal,0.0722 µM and 0.0489 µM
same,TGI,TK-10 renal,32.1 µM and > 10 µM
same,GI50,U251 CNS,0.68 µM and 1.51 µM
same,TGI,U251 CNS,25.4 µM and > 10 µM
same,GI50,UACC-257 melanoma,0.297 µM and 0.733 µM
same,TGI,UACC-257 melanoma,26.1 µM and > 10 µM
same,GI50,UACC-62 melanoma,0.321 µM and 0.246 µM
same,TGI,UACC-62 melanoma,3.64 µM and 4.39 µM
same,GI50,UO-31 renal,0.185 µM and 0.14 µM
same,TGI,UO-31 renal,15.3 µM and > 8.44 µM
